Data published in PubChem BioAssay (NCI).
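In this assay, cells in 96-well plates receive the compound at five concentrations for 48 hours. Endpoints are linearly interpolated between the surrounding concentrations. TGI: concentration producing complete growth inhibition.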

How the values were obtained:
Experiment in all cases: NCI-60 cell line screen, 48 h
SNB-75 CNS = test system: SNB-75 CNS
A549 NSCLC = test system: A549 NSCLC
EKVX NSCLC = test system: EKVX NSCLC
SF-295 CNS = test system: SF-295 CNS
MCF7 breast = test system: MCF7 breast
SF-268 CNS = test system: SF-268 CNS
HL-60(TB) leukemia = test system: HL-60(TB) leukemia
KM12 colon = test system: KM12 colon
UO-31 renal = test system: UO-31 renal
HOP-62 NSCLC = test system: HOP-62 NSCLC
IGROV1 ovarian = test system: IGROV1 ovarian
HCT-15 colon = test system: HCT-15 colon
CCRF-CEM leukemia = test system: CCRF-CEM leukemia
SN12C renal = test system: SN12C renal
SW-620 colon = test system: SW-620 colon
HOP-92 NSCLC = test system: HOP-92 NSCLC
M14 melanoma = test system: M14 melanoma
OVCAR-3 ovarian = test system: OVCAR-3 ovarian
UACC-62 melanoma = test system: UACC-62 melanoma
SR leukemia = test system: SR leukemia

SMILES	TGI (SNB-75 CNS)	TGI (A549 NSCLC)	TGI (EKVX NSCLC)	TGI (SF-295 CNS)	TGI (MCF7 breast)	TGI (SF-268 CNS)	TGI (HL-60(TB) leukemia)	TGI (KM12 colon)	TGI (UO-31 renal)	TGI (HOP-62 NSCLC)	TGI (IGROV1 ovarian)	TGI (HCT-15 colon)	TGI (CCRF-CEM leukemia)	TGI (SN12C renal)	TGI (SW-620 colon)	TGI (HOP-92 NSCLC)	TGI (M14 melanoma)	TGI (OVCAR-3 ovarian)	TGI (UACC-62 melanoma)	TGI (SR leukemia)
O=c1oc(-c2ccc(O)cc2)cc2cc(O)ccc12	> 100 µM	> 100 µM	> 100 µM	> 100 µM	52.9 µM	97.6 µM	48.6 µM	68 µM	81.3 µM	> 100 µM	> 100 µM	> 100 µM	> 100 µM	65.1 µM	87.8 µM	96.2 µM	55.5 µM	> 100 µM		
N#CCCN(CCC#N)c1ccc(/C=C2\N=C(c3ccccc3)N(c3ccc(C(=O)O)cc3)C2=O)cc1		> 100 µM	> 100 µM	> 100 µM	> 100 µM	61.6 µM		31 µM	> 100 µM	> 100 µM	53.3 µM	> 100 µM		> 100 µM	48.3 µM	30.1 µM	> 100 µM	> 100 µM	67.5 µM	
O=c1[nH]nc(Cc2ccccc2)n1/N=C/c1ccco1	> 100 µM	> 100 µM	> 100 µM	> 100 µM	> 100 µM	> 100 µM		> 100 µM	> 100 µM	> 100 µM		> 100 µM	> 100 µM	> 100 µM	> 100 µM		> 100 µM	> 100 µM	> 100 µM	
O=c1cc(-c2ccccc2)[nH]c2cc(F)cc(F)c12	46.9 µM	> 100 µM		> 100 µM		> 100 µM	> 100 µM	> 100 µM	> 100 µM	> 100 µM	> 100 µM	> 100 µM	> 100 µM	> 100 µM	> 100 µM	> 100 µM	> 100 µM		63.9 µM	> 100 µM
COC(=O)CCC1(CCC(=O)OC)CCCCCCC(CCC(=O)OC)(CCC(=O)OC)C(=O)C1=O	> 100 µM	> 100 µM	> 100 µM	> 100 µM	> 100 µM	> 100 µM		> 100 µM	76.7 µM	> 100 µM	> 100 µM	> 100 µM		> 100 µM		> 100 µM	> 100 µM	> 100 µM	> 100 µM	
COc1ccc(-c2c(-c3ccc(OC)cc3)n3c(=O)n(C)c(=O)n23)cc1	> 100 µM	> 100 µM	> 100 µM	> 100 µM	> 100 µM			> 100 µM	> 100 µM	> 100 µM	> 100 µM	> 100 µM	> 100 µM	> 100 µM	> 100 µM	76 µM	> 100 µM	51.6 µM	> 100 µM	
Cc1ccc(/C=C2\NC(=S)NC2=O)cc1	> 100 µM	> 100 µM	> 100 µM	> 100 µM	> 100 µM	> 100 µM		> 100 µM	> 100 µM	> 100 µM	> 100 µM	> 100 µM	> 100 µM	> 100 µM	> 100 µM		> 100 µM	> 100 µM	> 100 µM	
CCOC(=O)c1cn2c(n1)sc1cc(OC)ccc12	> 100 µM	> 100 µM	> 100 µM	> 65.5 µM	> 100 µM	> 100 µM		> 100 µM	> 100 µM	> 100 µM	> 100 µM	> 55.3 µM		> 100 µM	> 100 µM	> 100 µM	> 100 µM	> 44.8 µM	> 100 µM	
O=C(O)c1nc2ccc(C(F)(F)F)cc2nc1Nc1ccc(Cl)c(Cl)c1	29 µM		22.8 µM	17 µM	66.7 µM	21.9 µM	21.9 µM	20.5 µM	18.2 µM	20.6 µM	34.7 µM	22.6 µM		22.1 µM	24.1 µM			23.9 µM	18 µM	14 µM
CCOC(=O)c1sc2c(c1OC(=O)c1cc(OC)c(OC)c(OC)c1)c(=O)n(-c1ccccc1)c(=S)n2-c1ccccc1	> 100 µM	> 100 µM	> 100 µM	> 100 µM	> 100 µM	> 100 µM	> 100 µM	> 100 µM		> 100 µM	> 100 µM	> 100 µM	> 100 µM	> 100 µM	> 100 µM	95.3 µM	> 100 µM	> 100 µM	> 100 µM	
O=Cc1ccc(OC[C@H]2COC(=O)N2)cc1	> 100 µM	> 100 µM	> 100 µM	> 100 µM	> 100 µM	> 100 µM	> 100 µM	> 100 µM	> 100 µM	> 100 µM	> 100 µM	> 100 µM	> 100 µM	> 100 µM	> 100 µM		> 100 µM	> 100 µM	> 100 µM	> 100 µM
CCc1ccc2[nH]c(O)c(C3=Nc4ccccc4C3=O)c2c1	91.4 µM	59.7 µM	24.2 µM	61.2 µM	10.9 µM	90.6 µM		> 100 µM	37.9 µM	41.4 µM	20.1 µM	> 100 µM	> 100 µM	> 100 µM	> 100 µM	> 100 µM	> 100 µM	51.8 µM	43.3 µM	37.8 µM
Cc1ccc2nc3n[nH]c(N)c3nc2c1	> 100 µM	> 100 µM	> 100 µM	> 100 µM	> 100 µM	> 100 µM		> 100 µM	> 100 µM	> 100 µM	> 100 µM	> 100 µM	> 100 µM	> 100 µM	> 100 µM	> 100 µM	> 100 µM	> 100 µM	> 100 µM	> 100 µM
Cc1ccc(S(=O)C[C@](NC(=O)OCc2ccccc2)(Sc2ccccc2)C(F)F)cc1 (stereo partly drawn)	28.3 µM	> 100 µM	29.3 µM	34.4 µM		63.4 µM	24.9 µM	31.9 µM	22.3 µM	86.9 µM	22.7 µM	40.3 µM	5.56 µM		40.6 µM	42.9 µM	> 100 µM	66.1 µM	29.9 µM	30.7 µM
CC1(C)OC(=S)N(c2ccccc2)C12C=Cc1cc3ccccc3nc1S2 (stereo not drawn)	> 100 µM	> 100 µM	> 100 µM			> 100 µM	> 100 µM	> 100 µM	> 100 µM	> 100 µM	> 100 µM	> 100 µM	> 100 µM	> 100 µM	> 100 µM	> 100 µM	> 100 µM	> 100 µM	> 100 µM	80.1 µM
Nc1ccc(-c2nc3ccc(F)cc3s2)cc1Cl	> 59.9 µM	> 100 µM	> 100 µM	> 89.2 µM	> 100 µM	> 100 µM		> 100 µM	> 100 µM	> 100 µM	> 100 µM	> 100 µM	> 100 µM	> 100 µM	> 100 µM	> 100 µM	> 100 µM	> 100 µM	> 100 µM	> 100 µM
COc1ccc(/C=C2\C[C@H]3[C@@H]4CCC5=C/C(=N/O)CC[C@]5(C)[C@H]4CC[C@]3(C)\C2=N\O)cc1	> 100 µM	> 100 µM	> 100 µM	> 100 µM	88.5 µM	> 100 µM		> 100 µM	57.5 µM	> 100 µM	> 100 µM	> 100 µM		> 100 µM	> 100 µM	> 100 µM	57.7 µM	> 100 µM	> 100 µM	86 µM
O=C(Nc1cccc(F)c1)c1cc2ccc(O)cc2oc1=Nc1cccc(F)c1		> 100 µM	26.3 µM	> 100 µM	> 100 µM	> 100 µM	10.1 µM	> 100 µM	> 100 µM	> 100 µM	5.73 µM	60.1 µM	6.72 µM	> 100 µM	> 100 µM		> 100 µM	> 100 µM	> 100 µM	> 100 µM
CC(C)(C)OC(=O)N1NC(c2ccccc2)CC1c1ccccc1 (stereo not drawn)	76.7 µM	32.9 µM	> 100 µM	> 100 µM	61 µM	> 100 µM		41.9 µM	53.2 µM	> 100 µM		60.1 µM	71.5 µM	> 100 µM	> 100 µM	> 100 µM	58.8 µM	> 100 µM	88.1 µM	> 100 µM
COc1cc(C2c3cc4c(cc3OC(NNS(=O)(=O)c3ccc(C)cc3)C2C)OCO4)cc(OC)c1OC (stereo not drawn)	17.1 µM	34.4 µM	18.3 µM	6.86 µM	> 39.8 µM	> 70.5 µM	6.59 µM	32.3 µM	> 100 µM	4.68 µM	> 67.3 µM	> 22.8 µM		> 71.4 µM	> 100 µM	50.1 µM	14.5 µM	7.78 µM	20.3 µM	
CCC(C)C(N)C(=O)N/N=C\c1c2c(nc3ccccc13)-c1cc3c(c(=O)n1C2)COC(=O)[C@]3(O)CC (stereo partly drawn)	13.3 µM	14.2 µM	> 100 µM	1.37 µM	1.61 µM		0.68 µM	> 22.5 µM	1.4 µM	1.15 µM	> 47 µM	> 100 µM		> 32.5 µM	> 43.7 µM	1.8 µM	1.6 µM	8.95 µM	0.106 µM	
O=C(c1ccccc1)N1C(=O)N(c2ccccc2)C(=Nc2ccccc2)C1=Nc1ccccc1	> 100 µM	> 100 µM	> 100 µM	> 100 µM		> 100 µM	> 100 µM	> 100 µM	> 100 µM	> 100 µM	> 100 µM	> 100 µM	> 100 µM	> 100 µM	> 100 µM	> 100 µM			31.8 µM	> 100 µM
CC(=O)C(C(=O)c1ccc(C)cc1)[C@H]1OC(C)(C)O[C@H]1[C@H]1COC(C)(C)O1 (stereo partly drawn)	10.8 µM	22.9 µM	11.7 µM	16.9 µM	8.68 µM	28.5 µM		18.9 µM	14 µM	14.3 µM	11 µM	31.6 µM		6.39 µM	10.8 µM	16.7 µM	14.4 µM		12.5 µM	> 50 µM
O=c1[nH]nc(-c2ccccc2)n1/N=C/c1ccccc1O		> 100 µM	> 100 µM	> 100 µM	> 100 µM	> 100 µM		> 100 µM	> 100 µM		> 100 µM	> 100 µM		> 100 µM	> 100 µM	> 100 µM		> 100 µM	> 100 µM	> 100 µM
Cn1c(=Nc2ccc(Cl)cc2)sc2ccccc21	> 100 µM	> 100 µM	> 100 µM	> 100 µM		> 100 µM	> 100 µM	> 100 µM	> 100 µM	> 100 µM	> 100 µM	65.7 µM	> 100 µM	> 100 µM	> 100 µM	85.7 µM			> 100 µM	> 100 µM
CC(O)c1cc2c(s1)C(=O)c1c(C(C)O)csc1C2=O (stereo not drawn)	0.566 µM	0.355 µM	1.13 µM	0.255 µM	> 100 µM	1.32 µM	0.0415 µM	1.08 µM	0.776 µM	0.439 µM	0.468 µM	0.422 µM	0.492 µM	0.349 µM	0.833 µM	0.762 µM		0.135 µM	0.183 µM	
